This is an account of results in ChEMBL document CHEMBL1201862, “PubChem BioAssay data set” (2004).

The structures appear in SMILES notation.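 Growth conditions: 96-well plates. Treatment: test compound, 48 hours, 5 concentrations. Analysis: linear interpolation between bracketing concentrations; unreached endpoints set to highest concentration. Abbreviation: GI50, concentration required for 50% inhibition of growth.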 The source made the active and inactive calls. Cut-off read from the data, not from the text of the source: active = GI50 up to about 1.1 µM and inactive = higher. Bounds are passed on as bounds.

Some test systems named below: RXF 393; HOP-62; UACC-257; IGROV-1; DMS-273; TK-10; HL-60; SK-OV-3; HT-29; SN12C; NCI-H226; RPMI-8226; OVCAR-8; SK-MEL-28; LOX IMVI; OVCAR-3; SF-539; MCF7; MDA-N.
What all share (test): inhibition of tumour cell growth, NCI panel, 48 h

For the molecule `Nc1nc2c(ncn2C2OC(CO)C(O)C2O)c(=O)o1` (configuration not stated), the GI50 with RXF 393 is > 100 µM (inactive); in the assay on HOP-62 it was > 100 µM (inactive); with UACC-257 it was > 100 µM (inactive); in the assay on IGROV-1, > 100 µM (inactive); in the assay on DMS-273 it was 22.5 µM (inactive); in the assay with TK-10 it was > 100 µM (inactive). Also, the GI50 was > 45.1 µM (inactive) in the assay with HL-60; > 100 µM (inactive) in the assay on SK-OV-3; 26.4 µM (inactive) in the assay with HT-29; > 100 µM (inactive) with SN12C; > 100 µM (inactive) in the assay with NCI-H226; > 52.8 µM (inactive) in the assay with RPMI-8226. Moreover, the GI50 was > 100 µM (inactive) in the assay on OVCAR-8; > 100 µM (inactive) in the assay on SK-MEL-28; > 58.2 µM (inactive) with LOX IMVI; > 100 µM (inactive) in the assay on OVCAR-3; > 100 µM (inactive) with SF-539.
For `C=C(CO)CC(O)c1cc(OC)ccc1OC` (configuration not stated), the GI50 in the assay on RXF 393, with HOP-62, with UACC-257, in the assay with IGROV-1, in the assay with DMS-273 and in the assay on TK-10 was > 100 µM (inactive) in each case. Further, the GI50 in the assay on HL-60, in the assay on SK-OV-3, in the assay with HT-29, in the assay with SN12C, in the assay with NCI-H226 and with RPMI-8226 was > 100 µM (inactive) in each case. Further, the GI50 in the assay on OVCAR-8, in the assay with SK-MEL-28, in the assay on LOX IMVI, in the assay on OVCAR-3 and with SF-539 was > 100 µM (inactive) in each case.
Consider `OCCN1CCN2C=C(C3CCCC4N(CCO)CCN34)CCC21` (configuration not stated), for which the GI50 is 20.3 µM (inactive) in the assay on RXF 393; > 100 µM (inactive) in the assay with HOP-62; > 100 µM (inactive) in the assay on UACC-257; 76 µM (inactive) in the assay on IGROV-1; 49.2 µM (inactive) with DMS-273; > 53.5 µM (inactive) in the assay on TK-10. The GI50 was 5.28 µM (inactive) in the assay with HL-60; > 69.2 µM (inactive) with SK-OV-3; 68.9 µM (inactive) with HT-29; 39.5 µM (inactive) in the assay on SN12C; > 91 µM (inactive) in the assay on NCI-H226; 8.04 µM (inactive) in the assay on RPMI-8226. Besides, the GI50 with OVCAR-8 was 35.2 µM (inactive); in the assay on SK-MEL-28, 42 µM (inactive); in the assay with LOX IMVI, 26.7 µM (inactive); with OVCAR-3, 35.4 µM (inactive); in the assay with SF-539, 33.7 µM (inactive).
Take `Cn1nc(-c2ccccc2)c(N=[N+]=[N-])cc1=O`: the GI50 with RXF 393, in the assay with HOP-62, with UACC-257, in the assay with IGROV-1, in the assay on DMS-273 and in the assay on TK-10 was > 100 µM (inactive) in each case. The GI50 in the assay on HL-60 is > 100 µM (inactive); in the assay with SK-OV-3, 1.59 µM (inactive); with HT-29 it was > 100 µM (inactive); in the assay with SN12C, > 100 µM (inactive); in the assay on NCI-H226 it was > 100 µM (inactive); in the assay with RPMI-8226 it was > 100 µM (inactive). For the same molecule, the GI50 in the assay with OVCAR-8, with SK-MEL-28, in the assay on LOX IMVI, with OVCAR-3 and with SF-539 was > 100 µM (inactive) throughout.
`Cc1ccc(S(=O)(=O)N2CCC3(C(/C=C/c4ccccc4)=Nc4ccccc43)C2c2ccccc2)cc1` (configuration not stated): the GI50 in the assay on RXF 393 was > 100 µM (inactive); in the assay on HOP-62, 63.5 µM (inactive); in the assay with UACC-257 it was > 100 µM (inactive); with IGROV-1 it was 1.41 µM (inactive); in the assay with DMS-273, > 100 µM (inactive); in the assay on TK-10, > 100 µM (inactive). For the same molecule, the GI50 was > 100 µM (inactive) in the assay with HL-60; > 100 µM (inactive) in the assay on SK-OV-3; > 100 µM (inactive) with HT-29; > 100 µM (inactive) in the assay on SN12C; 37.9 µM (inactive) in the assay on NCI-H226; > 100 µM (inactive) in the assay with RPMI-8226. Besides, the GI50 in the assay on OVCAR-8, in the assay with SK-MEL-28, with LOX IMVI, in the assay with OVCAR-3 and in the assay with SF-539 was > 100 µM (inactive) each time.
Consider `CC(=O)OC[C@]1(O)CC[C@@]23CC1C[C@@H]2CCC1C(C)(C)CCC[C@@]13C` (some centres not stated), for which the GI50 is 7.11 µM (inactive) in the assay on RXF 393; 17.4 µM (inactive) in the assay on HOP-62; 15.8 µM (inactive) with UACC-257; 19.7 µM (inactive) in the assay with IGROV-1; 3.65 µM (inactive) with DMS-273; 13.4 µM (inactive) with TK-10. Moreover, the GI50 was 4.95 µM (inactive) in the assay with HL-60; 15.2 µM (inactive) in the assay with SK-OV-3; 13 µM (inactive) in the assay on HT-29; 12.2 µM (inactive) with SN12C; 15.8 µM (inactive) with NCI-H226; 9.23 µM (inactive) with RPMI-8226. Also, the GI50 with OVCAR-8 is 16.6 µM (inactive); in the assay on SK-MEL-28 it was 14.8 µM (inactive); with LOX IMVI, 11.1 µM (inactive); with OVCAR-3, 17.1 µM (inactive); with SF-539, 16.4 µM (inactive).
As for `CC(=O)NC1C(OCc2ccccc2)OC(CO)C(O)C1OC(C)C(=O)NC(C)C(=O)N[C@@H](CCC(=O)OCCCNC1c2ccccc2Nc2cccc([N+](=O)[O-])c21)C(N)=O` (some centres not stated), the GI50 in the assay with MCF7 is 0.0124 µM (active); with MDA-N it was 0.0152 µM (active); in the assay with RXF 393 it was 0.0141 µM (active); in the assay with HOP-62, < 0.01 µM (active); with UACC-257 it was 0.0123 µM (active); in the assay with IGROV-1, 0.0222 µM (active). In addition, the GI50 was < 0.01 µM (active) with DMS-273; < 0.01 µM (active) in the assay with TK-10; < 0.0117 µM (active) in the assay on HL-60; 0.0194 µM (active) in the assay with SK-OV-3; < 0.01 µM (active) with HT-29; < 0.01 µM (active) in the assay with SN12C. Besides, the GI50 with RPMI-8226 is < 0.01 µM (active); in the assay with OVCAR-8 it was < 0.01 µM (active); in the assay on SK-MEL-28, < 0.01 µM (active); in the assay with LOX IMVI, 0.0269 µM (active); with OVCAR-3, < 0.01 µM (active); with SF-539, < 0.01 µM (active).
For `COC(=O)C1[C@@H](C(=O)OC)C(=O)O[C@H]1c1cc(OC)c(OC)c(OC)c1` (some centres not stated), the GI50 in the assay on RXF 393, in the assay with HOP-62, in the assay with UACC-257, with IGROV-1, in the assay on DMS-273 and in the assay on TK-10 was > 100 µM (inactive) each time. Besides, the GI50 in the assay with HL-60, with SK-OV-3, in the assay on HT-29, in the assay with SN12C, in the assay on NCI-H226 and with RPMI-8226 was > 100 µM (inactive) in each case. The GI50 in the assay on OVCAR-8, in the assay with SK-MEL-28, in the assay on LOX IMVI, in the assay on OVCAR-3 and in the assay on SF-539 was > 100 µM (inactive) in each case.
